Consider 16 compounds from PubChem BioAssay AID328 (DTP/NCI, 2004).

The assay relates to BDF1 mice, P388 leukemia ip, median survival T/C. Nature of the assay: NCI In Vivo Anticancer Drug Screen. Data for tumor model P388 Leukemia (intraperitoneal) in B6D2F1 (BDF1) mice. The note with it: endpoint: median survival time, higher = longer survival. The method, boiled down: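 Transplantable tumour in mice; compound vs vehicle dosing; survival scored; ratio of treated to control reported.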

Where [1] appears, read: dose: 50.0 mg/kg/injection, schedule: Q01DX009 (ip), vehicle: Klucel (hydroxypropylcellulose) (HPC).
[2] abbreviates: dose: 100.0 mg/kg/injection, schedule: Q01DX009 (ip), vehicle: Klucel (hydroxypropylcellulose) (HPC).
[3] abbreviates: dose: 200.0 mg/kg/injection, schedule: Q01DX009 (ip), vehicle: Klucel (hydroxypropylcellulose) (HPC).
[4] abbreviates: dose: 50.0 mg/kg/injection, schedule: Q04DX003 (ip), vehicle: saline with Tween-80.
[5] abbreviates: dose: 100.0 mg/kg/injection, schedule: Q04DX003 (ip), vehicle: saline with Tween-80.
Setting [6] is: dose: 200.0 mg/kg/injection, schedule: Q04DX003 (ip), vehicle: saline with Tween-80.
[7] abbreviates: dose: 50.0 mg/kg/injection, schedule: Q01DX009 (ip), vehicle: saline with Tween-80.
The mark [8] stands for this setting: dose: 100.0 mg/kg/injection, schedule: Q01DX009 (ip), vehicle: saline with Tween-80.
[9] abbreviates: dose: 200.0 mg/kg/injection, schedule: Q01DX009 (ip), vehicle: saline with Tween-80.
Setting [10] is: dose: 25.0 mg/kg/injection, schedule: Q01DX009 (ip), vehicle: saline with Tween-80.

Molecules are shown by their SMILES. Values joined by “and” are separate entries in the source; they are usually repeats but may differ in a detail not shown here. Equal values may be shown once. Toxic doses and inconclusive results are not listed.

Consider `Brc1cnn2c1NCC2`, for which the T/C is 100 % of control (dose: 12.5 mg/kg/injection, schedule: Q01DX009 (ip), vehicle: water); 93 % of control (dose: 25.0 mg/kg/injection, schedule: Q01DX009 (ip), vehicle: water); 109 % of control and 114 % of control (dose: 25.0 mg/kg/injection, schedule: Q04DX003 (ip), vehicle: water); 98 % of control (dose: 50.0 mg/kg/injection, schedule: Q01DX009 (ip), vehicle: water); 95 % of control and 118 % of control (dose: 50.0 mg/kg/injection, schedule: Q04DX003 (ip), vehicle: water); 97 % of control (dose: 100.0 mg/kg/injection, schedule: Q01DX009 (ip), vehicle: water). The T/C by setting is: (dose: 100.0 mg/kg/injection, schedule: Q04DX003 (ip), vehicle: water) 95 % of control and 114 % of control; (dose: 200.0 mg/kg/injection, schedule: Q01DX009 (ip), vehicle: water) 93 % of control; (dose: 200.0 mg/kg/injection, schedule: Q04DX003 (ip), vehicle: water) 93 % of control.
With `CCc1ccc(OS(=O)(=O)c2ccc([N+](=O)[O-])cc2)cc1`, the T/C reads like this: (dose: 75.0 mg/kg/injection, schedule: Q01DX001 (ip), vehicle: saline with Tween-80) 104 % of control; (dose: 150.0 mg/kg/injection, schedule: Q01DX001 (ip), vehicle: saline with Tween-80) 100 % of control; (dose: 300.0 mg/kg/injection, schedule: Q01DX001 (ip), vehicle: saline with Tween-80) 100 % of control.
With `c1ccc(Oc2c3ccccc3nc3ccccc23)cc1`, the T/C (dose: 50.0 mg/kg/injection, schedule: Q01DX005 (ip), vehicle: saline with Tween-80) was 123 % of control.
`CC12C(=O)C(C)(C(c3ccccc3)=C1c1ccccc1)C1(c3ccccc3)C(c3ccccc3)C21c1ccccc1` (stereo not given): the T/C reads like this: under setting [1], 100 % of control; under setting [2], 100 % of control; under setting [3], 104 % of control.
Take `CCCCCn1c(C)cc(/C=C\c2ccc3cc(C)ccc3[n+]2C)c1C`: the T/C is, setting by setting: (dose: 0.22 mg/kg/injection, schedule: Q01DX009 (ip), vehicle: saline) 105 % of control and 109 % of control; (dose: 0.33 mg/kg/injection, schedule: Q01DX009 (ip), vehicle: saline) 95 % of control and 110 % of control; (dose: 0.5 mg/kg/injection, schedule: Q01DX009 (ip), vehicle: saline) 109 % of control; (dose: 0.5 mg/kg/injection, schedule: Q04DX003 (ip), vehicle: saline) 118 % of control; (dose: 0.75 mg/kg/injection, schedule: Q01DX009 (ip), vehicle: saline) 90 % of control; (dose: 0.88 mg/kg/injection, schedule: Q04DX003 (ip), vehicle: saline) 108 % of control. For the same compound, the T/C reads like this: (dose: 1.0 mg/kg/injection, schedule: Q04DX003 (ip), vehicle: saline) 120 % of control; (dose: 1.32 mg/kg/injection, schedule: Q04DX003 (ip), vehicle: saline) 112 % of control; (dose: 1.5 mg/kg/injection, schedule: Q01DX009 (ip), vehicle: saline) 90 % of control; (dose: 2.0 mg/kg/injection, schedule: Q04DX003 (ip), vehicle: saline) 104 % of control and 120 % of control; (dose: 3.0 mg/kg/injection, schedule: Q04DX003 (ip), vehicle: saline) 116 % of control.
As for `CC(=O)NC(CCC(=O)C=[N+]=N)C(=O)O` (stereo not given), the T/C is 115 % of control (dose: 0.05 mg/kg/injection, schedule: Q01DX010 (ip), vehicle: other); 110 % of control (dose: 0.1 mg/kg/injection, schedule: Q01DX010 (ip), vehicle: other); 120 % of control (dose: 0.2 mg/kg/injection, schedule: Q01DX010 (ip), vehicle: other); 154 % of control (dose: 0.6 mg/kg/injection, schedule: Q01DX010 (ip), vehicle: other); 168 % of control (dose: 0.8 mg/kg/injection, schedule: Q01DX010 (ip), vehicle: other); 100 % of control (dose: 1.0 mg/kg/injection, schedule: Q01DX010 (ip), vehicle: other).
As for `ClCCCCCCCCCCc1ccccc1`, the T/C is, setting by setting: under setting [4], 106 % of control; under setting [5], 109 % of control and 110 % of control; under setting [6], 108 % of control and 118 % of control.
Regarding `O=NN(CS(=O)(=O)O)c1ccccc1`, the T/C reads like this: (dose: 50.0 mg/kg/injection, schedule: Q01DX001 (ip), vehicle: saline with Tween-80) 104 % of control; (dose: 50.0 mg/kg/injection, schedule: Q04DX003 (ip), vehicle: Klucel (hydroxypropylcellulose) (HPC)) 104 % of control; (dose: 100.0 mg/kg/injection, schedule: Q01DX001 (ip), vehicle: saline with Tween-80) 104 % of control; under setting [2], 104 % of control; (dose: 100.0 mg/kg/injection, schedule: Q04DX003 (ip), vehicle: Klucel (hydroxypropylcellulose) (HPC)) 113 % of control; (dose: 200.0 mg/kg/injection, schedule: Q01DX001 (ip), vehicle: saline with Tween-80) 122 % of control. Also, the T/C by setting is: under setting [3], 108 % of control; (dose: 200.0 mg/kg/injection, schedule: Q04DX003 (ip), vehicle: Klucel (hydroxypropylcellulose) (HPC)) 109 % of control.
Regarding `COC(=O)C1C(O)C(C)C(O)C(C)/C=C\C=C(C)C(=O)Nc2c(C)c(OC(C)=O)c3c(c2O)C(=O)C(C)=C2OCOC(=C23)C(C)=CC(C)(O)C(O)C(C)C1O` (stereo not given), the T/C is, setting by setting: under setting [2], 115 % of control; under setting [3], 108 % of control and 115 % of control; (dose: 400.0 mg/kg/injection, schedule: Q01DX009 (ip), vehicle: Klucel (hydroxypropylcellulose) (HPC)) 106 % of control.
For the compound `CCn1c2ccccc2c2cc(NC(=O)Nc3ccc([N+](=O)[O-])cc3C)ccc21`, the T/C under setting [7] was 100 % of control, the T/C under setting [8] is 91 % of control and the T/C under setting [9] was 91 % of control.
As to `CCOC(=O)C1(c2ccccc2)C(=O)Oc2ccccc21` (stereo not given), the T/C is 100 % of control under setting [10], 98 % of control under setting [7], 108 % of control under setting [8] and 122 % of control under setting [9].
As for `COC(=O)C(C)CN1CC(C)OC(C)C1` (stereo not given), the T/C runs as follows: (dose: 100.0 mg/kg/injection, schedule: Q04DX003 (ip), vehicle: saline) 113 % of control; (dose: 200.0 mg/kg/injection, schedule: Q04DX003 (ip), vehicle: saline) 100 % of control; (dose: 400.0 mg/kg/injection, schedule: Q04DX003 (ip), vehicle: saline) 100 % of control.
As to `COc1ccc(N=C(c2ccccc2)c2ccc([N+](=O)[O-])cc2)cc1`, the T/C (dose: 12.0 mg/kg/injection, schedule: Q01DX009 (ip), vehicle: Klucel (hydroxypropylcellulose) (HPC)) was 100 % of control; the T/C (dose: 25.0 mg/kg/injection, schedule: Q01DX009 (ip), vehicle: Klucel (hydroxypropylcellulose) (HPC)) was 109 % of control; the T/C under setting [1] was 100 % of control and 122 % of control; the T/C under setting [2] was 86 % of control; the T/C under setting [3] is 90 % of control.
With `O=C(Nc1ccccc1)OCc1ccc(OCc2ccccc2)cc1`, the T/C runs as follows: under setting [7], 89 % of control; under setting [8], 122 % of control; under setting [9], 105 % of control.
In the case of `O=C1/C(=C\c2ccc(Cl)cc2)SC(=S)N1c1ccccc1`, the T/C was 88 % of control (dose: 37.5 mg/kg/injection, schedule: Q01DX009 (ip), vehicle: saline with Tween-80); 97 % of control (dose: 75.0 mg/kg/injection, schedule: Q01DX009 (ip), vehicle: saline with Tween-80); 108 % of control (dose: 150.0 mg/kg/injection, schedule: Q01DX009 (ip), vehicle: saline with Tween-80).
With `O=Cc1nccn1Cc1ccccc1`, the T/C (dose: 12.5 mg/kg/injection, schedule: Q01DX009 (ip), vehicle: saline with Tween-80) was 116 % of control; the T/C (dose: 12.5 mg/kg/injection, schedule: Q04DX003 (ip), vehicle: saline with Tween-80) is 100 % of control; the T/C under setting [10] is 100 % of control; the T/C (dose: 25.0 mg/kg/injection, schedule: Q04DX003 (ip), vehicle: saline with Tween-80) is 103 % of control; the T/C under setting [7] was 108 % of control; the T/C under setting [4] was 96 % of control. Also, the T/C was 105 % of control under setting [8]; 106 % of control under setting [5]; 98 % of control under setting [9]; 101 % of control and 106 % of control under setting [6]; 103 % of control (dose: 300.0 mg/kg/injection, schedule: Q04DX003 (ip), vehicle: saline with Tween-80); 107 % of control (dose: 400.0 mg/kg/injection, schedule: Q01DX009 (ip), vehicle: saline with Tween-80).
